Test results from US10570129B2 (Zoetis Services LLC, priority 2015, dated 2020).

How the values were obtained:
Haemonchus contortus L3 = test: microbe, parasite or virus in culture; assay type: cell-based; conditions: for minimal effective concentration: Haemonchus contortus, 96 h, read-out: HcL3 Minimal Effective Concentration (MEC)
D. immitis microfilariae = test: Dirofilaria immitis, microfilariae (DiMF) in vitro motility assay; assay type: cell-based; conditions: for minimal effective concentration: Dirofilaria immitis, 72 h, read-out: DiMF minimally effective dose (MEC); for DiMF minimally effective dose (MEC): decrease in microfilariae motility by subjective visual assessment, observed at 72 hours

Compound	minimal effective concentration (Haemonchus contortus L3) [µM]	minimal effective concentration (D. immitis microfilariae) [µM]	HcL3 Minimal Effective Concentration (MEC) (Haemonchus contortus L3) [µM]	DiMF minimally effective dose (MEC) (D. immitis microfilariae) [µM]
N#Cc1ccc(/C=C/CN2CCc3c(c4ccc(C(F)(F)F)cc4n3C(=O)NCc3ccnc(Cl)c3)C2)cc1F [Example 153, (E)-N-((2-chloropyridin-4-yl)methyl)-2-(3-(4-cyano-3-fluorophenyl)allyl)-7-(trifluoromethyl)-1,2,3,4-tetrahydro-5H-pyrido[4,3-b]indole-5-carboxamide]	1.3	7.6		
NC(=O)c1ccc2c3c(n(C(=O)NCc4ccnc(Cl)c4)c2c1)CCN(C/C=C/c1ccc(F)cc1)C3 [Example 466, (E)-N^5-((2-chloropyridin-4-yl)methyl)-2-(3-(4-fluorophenyl)allyl)-1,2,3,4-tetrahydro-5H-pyrido[4,3-b]indole-5,7-dicarboxamide]	> 100	3.3		
N#Cc1ccc2c(c1)c1c(n2C(=O)NCc2ccnc(Cl)c2)CCN(C/C=C/c2cc(F)ccc2Br)C1 [Example 77, (E)-2-(3-(2-bromo-5-fluorophenyl)allyl)-N-((2-chloropyridin-4-yl)methyl)-8-cyano-1,2,3,4-tetrahydro-5H-pyrido[4,3-b]indole-5-carboxamide]	0.3	> 100		
O=C(NCc1ccnc(Cl)c1)n1c2c(c3ccc(OC(F)(F)F)cc31)CN(Cc1ccc3cc(Cl)ccc3c1)CC2 [Example 368, 2-((6-chloronaphthalen-2-yl)methyl)-N-((2-chloropyridin-4-yl)methyl)-7-(trifluoromethoxy)-1,2,3,4-tetrahydro-5H-pyrido[4,3-b]indole-5-carboxamide]	> 100	43.5		
O=C(NCc1ccnc(Cl)c1)n1c2c(c3cc(Cl)c(OC(F)(F)F)cc31)CN(C/C=C/c1ccc(Cl)cc1)CC2 [Example 499, (E)-8-chloro-2-(3-(4-chlorophenyl)allyl)-N-((2-chloropyridin-4-yl)methyl)-7-(trifluoromethoxy)-1,2,3,4-tetrahydro-5H-pyrido[4,3-b]indole-5-carboxamide]	1.8	> 100		
O=C(NCc1ccnc(Cl)c1)n1c2c(c3cc(F)ccc31)CN(C/C=C/c1ccc(Cl)cc1)CC2 [Example 169, (E)-2-(3-(4-chlorophenyl)allyl)-N-((2-chloropyridin-4-yl)methyl)-8-fluoro-1,2,3,4-tetrahydro-5H-pyrido[4,3-b]indole-5-carboxamide]	0.1	18.2		
O=C(NCc1ccnc(Cl)c1)n1c2c(c3cccc(Cl)c31)CN(C/C=C/c1ccc(Cl)c(Cl)c1)CC2 [Example 268, (E)-6-chloro-N-((2-chloropyridin-4-yl)methyl)-2-(3-(3,4-dichlorophenyl)allyl)-1,2,3,4-tetrahydro-5H-pyrido[4,3-b]indole-5-carboxamide]	> 100	10		
O=C(NCc1ccnc(Cl)c1)n1c2c(c3c4ccccc4ccc31)CN(C/C=C/c1ccc(Cl)cc1)CC2 [Example 436, (E)-10-(3-(4-chlorophenyl)allyl)-N-((2-chloropyridin-4-yl)methyl)-8,9,10,11-tetrahydro-7H-benzo[e]pyrido[4,3-b]indole-7-carboxamide]	> 100	18.2		
N#Cc1cc2c(cc1OC(F)(F)F)c1c(n2C(=O)NCc2ccnc(Cl)c2)CCN(C/C=C/c2ccc(Cl)cc2)C1 [Example 502, (E)-2-(3-(4-chlorophenyl)allyl)-N-((2-chloropyridin-4-yl)methyl)-7-cyano-8-(trifluoromethoxy)-1,2,3,4-tetrahydro-5H-pyrido[4,3-b]indole-5-carboxamide]	18.2	> 100		
N#Cc1ccc2c(c1)c1c(n2C(=O)NCc2ccnc(F)c2)CCN(C/C=C/c2c(F)cc(Cl)cc2F)C1 [Example 103, (E)-2-(3-(4-chloro-2,6-difluorophenyl)allyl)-8-cyano-N-((2-fluoropyridin-4-yl)methyl)-1,2,3,4-tetrahydro-5H-pyrido[4,3-b]indole-5-carboxamide]	0.2	3.3		
N#Cc1ccc2c(c1)c1c(n2C(=O)NCc2ccnc(F)c2)CCN(C/C=C/c2cc(F)cc(F)c2)C1 [Example 117, (E)-8-cyano-2-(3-(3,5-difluorophenyl)allyl)-N-((2-fluoropyridin-4-yl)methyl)-1,2,3,4-tetrahydro-5H-pyrido[4,3-b]indole-5-carboxamide]	0.2	1.8		
O=C(NCc1ccnc(F)c1)n1c2c(c3cc(C4CC4)ccc31)CN(C/C=C/c1ccc(Cl)cc1)CC2 [Example 501, (E)-2-(3-(4-chlorophenyl)allyl)-8-cyclopropyl-N-((2-fluoropyridin-4-yl)methyl)-1,2,3,4-tetrahydro-5H-pyrido[4,3-b]indole-5-carboxamide]	3.3	18.2		
O=C(NCc1ccnc(F)c1)n1c2c(c3cc(F)c(Cl)cc31)CN(C/C=C/c1cc(F)cc(F)c1)CC2 [Example 316, (E)-7-chloro-2-(3-(3,5-difluorophenyl)allyl)-8-fluoro-N-((2-fluoropyridin-4-yl)methyl)-1,2,3,4-tetrahydro-5H-pyrido[4,3-b]indole-5-carboxamide]	> 100	5.7		
O=C(NCc1ccnc(Cl)c1)n1c2c(c3cc(Cl)ccc31)CN(C/C=C/c1ccncc1)CC2 [Example 248, (E)-8-chloro-N-((2-chloropyridin-4-yl)methyl)-2-(3-(pyridin-4-yl)allyl)-1,2,3,4-tetrahydro-5H-pyrido[4,3-b]indole-5-carboxamide]	0.4	0.5		
N#Cc1ccc2c(c1)c1c(n2C(=O)NCc2ccnc(F)c2)CCN(C/C=C/c2ccc(F)cc2Cl)C1 [Example 114, (E)-2-(3-(2-chloro-4-fluorophenyl)allyl)-8-cyano-N-((2-fluoropyridin-4-yl)methyl)-1,2,3,4-tetrahydro-5H-pyrido[4,3-b]indole-5-carboxamide]	0.1	10		
O=C(NCc1ccnc(Cl)c1)n1c2c(c3c(OC(F)(F)F)cccc31)CN(C/C=C/c1ccc(OC(F)(F)F)cc1)CC2 [Example 361, (E)-N-((2-chloropyridin-4-yl)methyl)-9-(trifluoromethoxy)-2-(3-(4-(trifluoro-methoxy)phenyl)allyl)-1,2,3,4-tetrahydro-5H-pyrido[4,3-b]indole-5-carboxamide]	> 100	57.4		
O=C(NCc1ccnc(Cl)c1)n1c2c(c3cc(C(F)(F)F)ccc31)CN(C/C=C/c1ccc(Cl)c(Cl)c1)CC2 [Example 333, (E)-N-((2-chloropyridin-4-yl)methyl)-2-(3-(3,4-dichlorophenyl)allyl)-8-(trifluoromethyl)-1,2,3,4-tetrahydro-5H-pyrido[4,3-b]indole-5-carboxamide]	1.8	> 100		
O=C(NCc1ccnc(Cl)c1)n1c2c(c3c(OC(F)(F)F)cccc31)CN(C/C=C/c1ccc(C(F)(F)F)cc1)CC2 [Example 363, (E)-N-((2-chloropyridin-4-yl)methyl)-9-(trifluoromethoxy)-2-(3-(4-(trifluoro-methyl)phenyl)allyl)-1,2,3,4-tetrahydro-5H-pyrido[4,3-b]indole-5-carboxamide]	> 100	33		
(E)-N-((2-chloropyridin-4-yl)methyl)-2-(3-(3,4-dichlorophenyl)allyl)-9-methyl-1,2,3,4-tetrahydro-5H-pyrido[4,3-b]indole-5-carboxamide [Example 148]			5.7	10.0
O=C(NCc1ccnc(F)c1)n1c2c(c3ccc(Cl)cc31)CN(C/C=C/c1ccc(Cl)c(F)c1)CC2 [Example 224, (E)-7-chloro-2-(3-(4-chloro-3-fluorophenyl)allyl)-N-((2-fluoropyridin-4-yl)methyl)-1,2,3,4-tetrahydro-5H-pyrido[4,3-b]indole-5-carboxamide]	1.8	3.3		
N#Cc1ccc2c3c(n(C(=O)NCc4ccnc(Cl)c4)c2c1)CCN(C/C=C/c1cccc(Cl)c1F)C3 [Example 31, (E)-2-(3-(3-chloro-2-fluorophenyl)allyl)-N-((2-chloropyridin-4-yl)methyl)-7-cyano-1,2,3,4-tetrahydro-5H-pyrido[4,3-b]indole-5-carboxamide]	1	> 100		
(E)-7-chloro-2-(3-(4-cyano-3-fluorophenyl)allyl)-N-((2-fluoropyridin-4-yl)methyl)-1,2,3,4-tetrahydro-5H-pyrido[4,3-b]indole-5-carboxamide [Example 225]			1.8	3.3
O=C(NCc1ccnc(Cl)c1)n1c2c(c3cc(Br)ccc31)CN(C/C=C/c1ccc(Cl)c(F)c1)CC2 [Example 179, (E)-8-bromo-2-(3-(4-chloro-3-fluorophenyl)allyl)-N-((2-chloropyridin-4-yl)methyl)-1,2,3,4-tetrahydro-5H-pyrido[4,3-b]indole-5-carboxamide]	0.5	75.8		
O=C(NCc1ccnc(Cl)c1)n1c2c(c3cc(OC(F)(F)F)ccc31)CN(C/C=C/c1ccc(F)c(F)c1)CC2 [Example 389, (E)-N-((2-chloropyridin-4-yl)methyl)-2-(3-(3,4-difluorophenyl)allyl)-8-(trifluoromethoxy)-1,2,3,4-tetrahydro-5H-pyrido[4,3-b]indole-5-carboxamide]	0.5	10		
Cc1ccc2c(c1)c1c(n2C(=O)NCc2ccnc(Cl)c2)CCN(C/C=C/c2ccc(Cl)c(Cl)c2)C1 [Example 432, (E)-N-((2-chloropyridin-4-yl)methyl)-2-(3-(3,4-dichlorophenyl)allyl)-8-methyl-1,2,3,4-tetrahydro-5H-pyrido[4,3-b]indole-5-carboxamide]	1	57.4		
